# In patent publication US20090216029A1, “PROCESS FOR THE PRODUCTION OF ATORVASTATIN CALCIUM IN AMORPHOUS FORM” (priority 2008, published 2009):
# Counter-ions that a name gives are not always drawn.
# Conditions: 25° C./60% relative humidity for 3 months
# Method: • HPLC method: • Column: Kromasil C18, 250×4.6 mm, 5 μm • Mobile phase: • A: 388.5 ml of acetonitrile+31.5 ml of tetrahydrofuran++580 ml of 0.05 molar ammonium dihydrogen orthophosphate solution in water • B: 92.5 ml of acetonitrile+7.5 ml of tetrahydrofuran+300 of methanol++100 ml of 0.05 molar ammonium dihydrogen orthophosphate solution in water • Gradient:
structure (smiles),measurement,value
"CC(C)c1c(C(=O)Nc2ccccc2)c(-c2ccccc2)c(-c2ccc(F)cc2)n1CC[C@@H](O)C[C@@H](O)CC(=O)O (relative stereo) [amorphous atorvastatin calcium, [R—(R*,R*)]-2-(4-fluorophenyl)-β,δ-dihydroxy-5-(1-methylethyl)-3-phenyl-4-[(phenylamino)carbonyl]-1H-pyrrole-1-heptanoic acid, calcium salt (2:1)]",Total impurities and/or degradants after storage,not more than 1.0%
